In brackets after ≈: the same amount, converted by molar mass.
Assay: Solubility of glimepiride, pH-dependent
Type: physicochemical
Conditions: for solubility: phosphate buffer, thermodynamic from solid
Procedure: Glimepiride has very low and pH-dependent solubility. […] In media with pH around 7 the solubility of glimepiride is 0.001 mg/mL. At a pH 8, the solubility of glimepiride only slightly increases to 0.03 mg/mL. […] Being insoluble according to the present invention means that the solubility in water is lower than 10 mg/mL. […] Solubility as meant herein is measured using USP apparatus 2 with agitation at 75 RPM. The dissolution medium is phosphate buffer maintained at 37° C. Dissolution as meant herein is measured using HPLC.

Question: What does the source list for CCC1=C(C)CN(C(=O)NCCc2ccc(S(=O)(=O)NC(=O)N[C@H]3CC[C@H](C)CC3)cc2)C1=O [glimepiride, Glimepiride]?
Answer: solubility (37 °C, pH 8, aqueous buffer): 0.03 mg/mL (≈ 61.1 µM); solubility (aqueous buffer, acidic medium, 37° C.): < 0.001 mg/mL; solubility in water (in words) (water, insoluble means lower than 10 mg/mL): insoluble in water
